Test results from ChEMBL document CHEMBL1201862, “PubChem BioAssay data set” (2004).
Active and inactive are the calls of the source.

Assays:
Assay type in all cases: functional
[1] = target: Apoptotic protease-activating factor 1 (Homo sapiens, UniProt O14727); assay: SAR analysis of small molecule Activators of Apaf-1 in a Fluorescent assay - set 2.; conditions: read-out: EC50_Mean
[2] = SAR analysis of small molecule activators of Apaf-1 using a LZ-Caspase-9/Caspase-3 Fluorescent Selectivity assay - Set 2.; conditions: read-out: EC50_Mean
[3] = target: Sphingosine 1-phosphate receptor 2 (Homo sapiens, UniProt O95136); assay: Late-stage fluorescence-based dose-response cell-based counterscreen assay to identify agonists of the Sphingosine 1-Phosphate Receptor 3 (S1P3): Sphingosine 1-Phosphate Receptor 2 (S1P2) agonist assay.
Chain of Sphingosine 1-phosphate receptor 2 (O95136 whole entry): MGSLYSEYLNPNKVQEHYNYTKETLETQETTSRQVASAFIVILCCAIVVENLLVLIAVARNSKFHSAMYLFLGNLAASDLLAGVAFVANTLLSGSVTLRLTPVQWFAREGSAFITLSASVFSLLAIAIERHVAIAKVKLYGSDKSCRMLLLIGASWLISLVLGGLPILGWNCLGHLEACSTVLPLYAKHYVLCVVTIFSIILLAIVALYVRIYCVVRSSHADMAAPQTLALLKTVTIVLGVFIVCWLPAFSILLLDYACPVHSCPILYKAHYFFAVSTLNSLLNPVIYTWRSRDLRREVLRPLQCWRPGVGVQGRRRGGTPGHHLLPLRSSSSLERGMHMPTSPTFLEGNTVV

[4] = target: Sphingosine 1-phosphate receptor 4 (Homo sapiens, UniProt O95977); assay: Late-stage fluorescence-based dose-response cell-based counterscreen assay to identify agonists of the Sphingosine 1-Phosphate Receptor 3 (S1P3): Sphingosine 1-Phosphate Receptor 4 (S1P4) agonist assay.
Chain of Sphingosine 1-phosphate receptor 4 (O95977 whole entry): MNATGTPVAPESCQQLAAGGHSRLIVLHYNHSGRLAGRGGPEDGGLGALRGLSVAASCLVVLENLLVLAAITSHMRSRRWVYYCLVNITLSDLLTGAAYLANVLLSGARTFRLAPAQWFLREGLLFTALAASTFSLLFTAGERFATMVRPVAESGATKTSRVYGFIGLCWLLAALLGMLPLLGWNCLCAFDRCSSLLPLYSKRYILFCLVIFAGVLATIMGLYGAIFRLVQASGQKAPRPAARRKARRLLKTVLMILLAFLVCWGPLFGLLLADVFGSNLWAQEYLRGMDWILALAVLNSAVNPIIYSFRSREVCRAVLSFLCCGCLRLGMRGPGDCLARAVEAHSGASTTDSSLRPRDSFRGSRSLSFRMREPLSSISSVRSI

[5] = target: Dual specificity protein kinase CLK4 (Homo sapiens, UniProt Q9HAZ1)
Chain of Dual specificity protein kinase CLK4 (Q9HAZ1 whole entry): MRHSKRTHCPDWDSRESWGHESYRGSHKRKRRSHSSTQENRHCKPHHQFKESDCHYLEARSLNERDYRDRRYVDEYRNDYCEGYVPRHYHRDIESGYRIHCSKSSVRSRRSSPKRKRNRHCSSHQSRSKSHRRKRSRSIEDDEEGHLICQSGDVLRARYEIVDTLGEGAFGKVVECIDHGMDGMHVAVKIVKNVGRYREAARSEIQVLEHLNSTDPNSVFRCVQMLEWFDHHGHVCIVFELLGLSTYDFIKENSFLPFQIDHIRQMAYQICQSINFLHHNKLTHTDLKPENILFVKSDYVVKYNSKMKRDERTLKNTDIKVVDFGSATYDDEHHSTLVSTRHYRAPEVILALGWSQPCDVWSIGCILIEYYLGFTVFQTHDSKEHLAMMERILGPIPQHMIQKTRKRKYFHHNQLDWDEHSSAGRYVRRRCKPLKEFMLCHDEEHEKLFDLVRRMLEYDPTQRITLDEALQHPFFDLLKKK

[6] = target: Serine/threonine-protein kinase Nek4 (Homo sapiens, UniProt P51957)
[7] = target: Interleukin-1 receptor-associated kinase 4 (Homo sapiens, UniProt Q9NWZ3)
Chain of Interleukin-1 receptor-associated kinase 4 (Q9NWZ3 whole entry): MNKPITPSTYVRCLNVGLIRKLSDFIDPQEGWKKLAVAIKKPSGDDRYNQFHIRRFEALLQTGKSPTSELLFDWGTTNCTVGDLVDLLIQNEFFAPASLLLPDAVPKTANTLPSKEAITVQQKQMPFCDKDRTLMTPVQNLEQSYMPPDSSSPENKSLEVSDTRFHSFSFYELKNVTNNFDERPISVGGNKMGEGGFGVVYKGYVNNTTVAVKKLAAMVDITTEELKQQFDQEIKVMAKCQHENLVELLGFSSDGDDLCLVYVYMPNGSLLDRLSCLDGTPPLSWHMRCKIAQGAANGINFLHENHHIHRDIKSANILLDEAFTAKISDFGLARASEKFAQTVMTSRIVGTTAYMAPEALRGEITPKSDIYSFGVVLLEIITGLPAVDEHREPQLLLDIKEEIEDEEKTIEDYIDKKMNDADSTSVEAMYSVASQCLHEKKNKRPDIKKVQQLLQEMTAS

[8] = target: Casein kinase II subunit alpha (Homo sapiens, UniProt P68400)
[9] = target: Glycogen synthase kinase-3 beta (Homo sapiens, UniProt P49841);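 note: value comes from a broad kinome profiling panel, with GSK3B as the panel member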
Chain of Glycogen synthase kinase-3 beta (P49841 whole entry): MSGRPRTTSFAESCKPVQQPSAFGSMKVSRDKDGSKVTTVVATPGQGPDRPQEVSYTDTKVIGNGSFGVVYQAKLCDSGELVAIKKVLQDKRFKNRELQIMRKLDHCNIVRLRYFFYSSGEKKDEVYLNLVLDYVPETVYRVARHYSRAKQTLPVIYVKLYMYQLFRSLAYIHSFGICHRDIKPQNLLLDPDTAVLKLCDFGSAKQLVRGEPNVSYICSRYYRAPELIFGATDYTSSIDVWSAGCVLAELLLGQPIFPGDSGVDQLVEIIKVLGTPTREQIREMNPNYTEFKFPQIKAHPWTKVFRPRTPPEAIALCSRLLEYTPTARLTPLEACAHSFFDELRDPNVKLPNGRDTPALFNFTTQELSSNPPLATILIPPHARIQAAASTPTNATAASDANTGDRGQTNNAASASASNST

[10] = target: Dual specificity tyrosine-phosphorylation-regulated kinase 1A (Homo sapiens, UniProt Q13627);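 note: measured against DYRK1A as one member of a broad kinome profiling panel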
[11] = target: Dual specificity protein kinase CLK2 (Homo sapiens, UniProt P49760)
[12] = target: T1, High affinity choline transporter 1 (Homo sapiens, UniProt Q9GZV3); assay: human choline transporter blockers, potency – cell-based, 10-point CRC, membrane potential dye, dose response (AID 588401);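 note: membrane potential dye fluorescence of choline-evoked depolarization via CHT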
T1 sequence (Q9GZV3 whole entry): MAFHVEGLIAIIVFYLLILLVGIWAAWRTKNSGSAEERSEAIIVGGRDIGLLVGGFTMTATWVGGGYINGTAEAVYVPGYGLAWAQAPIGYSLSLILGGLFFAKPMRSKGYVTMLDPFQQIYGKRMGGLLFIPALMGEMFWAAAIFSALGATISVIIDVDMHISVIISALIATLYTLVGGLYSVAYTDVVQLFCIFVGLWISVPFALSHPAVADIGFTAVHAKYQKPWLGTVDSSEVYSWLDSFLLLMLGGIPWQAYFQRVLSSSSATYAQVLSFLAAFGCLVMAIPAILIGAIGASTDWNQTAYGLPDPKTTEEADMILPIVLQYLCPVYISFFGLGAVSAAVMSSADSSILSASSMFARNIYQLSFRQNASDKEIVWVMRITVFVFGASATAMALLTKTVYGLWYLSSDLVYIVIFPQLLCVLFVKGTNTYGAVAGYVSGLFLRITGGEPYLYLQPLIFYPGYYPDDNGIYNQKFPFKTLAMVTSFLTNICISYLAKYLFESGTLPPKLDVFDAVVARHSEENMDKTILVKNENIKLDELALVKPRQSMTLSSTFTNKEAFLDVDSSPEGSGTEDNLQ

[13] = target: T1, High affinity choline transporter 1; assay: human choline transporter blockers, potency – cell-based, 5-point CRC, membrane potential dye, dose response (AID 504840)
[14] = target: Macrophage colony-stimulating factor 1 receptor (Homo sapiens, UniProt P07333);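 note: value comes from the Navigating the Kinome screening panel, CSF1R member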
Chain of Macrophage colony-stimulating factor 1 receptor (P07333 whole entry): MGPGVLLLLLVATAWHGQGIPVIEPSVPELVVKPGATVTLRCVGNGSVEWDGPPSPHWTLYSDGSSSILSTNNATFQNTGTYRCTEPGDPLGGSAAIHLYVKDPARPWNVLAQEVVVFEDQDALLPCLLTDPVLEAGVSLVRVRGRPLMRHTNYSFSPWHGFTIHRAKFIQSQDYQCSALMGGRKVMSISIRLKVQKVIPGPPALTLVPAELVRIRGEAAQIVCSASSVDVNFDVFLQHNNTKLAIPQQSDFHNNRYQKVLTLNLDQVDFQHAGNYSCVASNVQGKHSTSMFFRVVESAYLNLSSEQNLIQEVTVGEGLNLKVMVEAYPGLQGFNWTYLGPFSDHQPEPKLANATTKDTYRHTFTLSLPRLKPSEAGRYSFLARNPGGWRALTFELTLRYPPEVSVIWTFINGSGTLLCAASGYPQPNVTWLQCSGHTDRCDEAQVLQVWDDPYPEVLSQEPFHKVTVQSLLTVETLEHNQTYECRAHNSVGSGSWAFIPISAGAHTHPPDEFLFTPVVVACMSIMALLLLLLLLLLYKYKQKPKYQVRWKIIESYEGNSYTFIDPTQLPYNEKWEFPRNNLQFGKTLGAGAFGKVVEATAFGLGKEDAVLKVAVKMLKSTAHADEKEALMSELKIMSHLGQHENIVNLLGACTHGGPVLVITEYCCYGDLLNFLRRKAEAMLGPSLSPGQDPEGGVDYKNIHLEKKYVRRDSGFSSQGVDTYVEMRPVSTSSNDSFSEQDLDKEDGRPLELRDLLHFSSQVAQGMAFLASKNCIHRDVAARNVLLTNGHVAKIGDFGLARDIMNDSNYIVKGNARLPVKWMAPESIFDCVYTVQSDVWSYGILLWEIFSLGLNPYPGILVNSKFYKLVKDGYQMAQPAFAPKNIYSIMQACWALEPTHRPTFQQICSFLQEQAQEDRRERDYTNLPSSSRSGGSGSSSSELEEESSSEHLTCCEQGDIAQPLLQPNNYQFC

[15] = target: Serine/threonine-protein kinase D2 (Homo sapiens, UniProt Q9BZL6);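 note: measured against PRKD2 as one member of a kinome-wide kinase profiling panel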
Chain of Serine/threonine-protein kinase D2 (Q9BZL6 whole entry): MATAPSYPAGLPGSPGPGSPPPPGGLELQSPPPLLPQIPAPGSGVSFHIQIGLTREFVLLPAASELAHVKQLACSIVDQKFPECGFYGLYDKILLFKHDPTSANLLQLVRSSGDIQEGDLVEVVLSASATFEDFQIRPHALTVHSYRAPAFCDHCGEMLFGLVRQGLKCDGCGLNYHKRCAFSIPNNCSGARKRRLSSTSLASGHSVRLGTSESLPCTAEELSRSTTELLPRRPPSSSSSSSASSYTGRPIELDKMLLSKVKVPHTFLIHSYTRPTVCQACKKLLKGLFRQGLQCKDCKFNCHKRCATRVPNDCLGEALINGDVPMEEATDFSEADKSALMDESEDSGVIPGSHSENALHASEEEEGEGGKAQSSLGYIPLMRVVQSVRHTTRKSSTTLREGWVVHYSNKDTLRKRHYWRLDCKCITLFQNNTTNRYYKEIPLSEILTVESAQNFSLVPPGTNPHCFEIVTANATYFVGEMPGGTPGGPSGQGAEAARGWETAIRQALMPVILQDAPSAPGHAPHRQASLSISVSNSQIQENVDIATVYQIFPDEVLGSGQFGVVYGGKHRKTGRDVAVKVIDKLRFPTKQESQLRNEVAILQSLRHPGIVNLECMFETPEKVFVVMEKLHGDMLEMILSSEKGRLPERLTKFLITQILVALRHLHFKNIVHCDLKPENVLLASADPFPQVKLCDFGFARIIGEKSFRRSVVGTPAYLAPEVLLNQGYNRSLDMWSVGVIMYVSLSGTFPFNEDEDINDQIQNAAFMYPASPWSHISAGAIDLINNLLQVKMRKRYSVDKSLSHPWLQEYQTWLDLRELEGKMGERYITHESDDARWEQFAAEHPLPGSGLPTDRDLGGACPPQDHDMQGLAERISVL

[16] = target: Ribosomal protein S6 kinase alpha-3 (Homo sapiens, UniProt P51812);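 note: measured within a kinome-wide profiling panel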
[17] = target: Rho-associated protein kinase 1 (Homo sapiens, UniProt Q13464);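 note: measured within a broad kinome-wide panel profiling many kinases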
[18] = target: Serine/threonine-protein kinase D3 (Homo sapiens, UniProt O94806);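 note: determined within a kinase panel screen, with PRKCN as the panel member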
Chain of Serine/threonine-protein kinase D3 (O94806 whole entry): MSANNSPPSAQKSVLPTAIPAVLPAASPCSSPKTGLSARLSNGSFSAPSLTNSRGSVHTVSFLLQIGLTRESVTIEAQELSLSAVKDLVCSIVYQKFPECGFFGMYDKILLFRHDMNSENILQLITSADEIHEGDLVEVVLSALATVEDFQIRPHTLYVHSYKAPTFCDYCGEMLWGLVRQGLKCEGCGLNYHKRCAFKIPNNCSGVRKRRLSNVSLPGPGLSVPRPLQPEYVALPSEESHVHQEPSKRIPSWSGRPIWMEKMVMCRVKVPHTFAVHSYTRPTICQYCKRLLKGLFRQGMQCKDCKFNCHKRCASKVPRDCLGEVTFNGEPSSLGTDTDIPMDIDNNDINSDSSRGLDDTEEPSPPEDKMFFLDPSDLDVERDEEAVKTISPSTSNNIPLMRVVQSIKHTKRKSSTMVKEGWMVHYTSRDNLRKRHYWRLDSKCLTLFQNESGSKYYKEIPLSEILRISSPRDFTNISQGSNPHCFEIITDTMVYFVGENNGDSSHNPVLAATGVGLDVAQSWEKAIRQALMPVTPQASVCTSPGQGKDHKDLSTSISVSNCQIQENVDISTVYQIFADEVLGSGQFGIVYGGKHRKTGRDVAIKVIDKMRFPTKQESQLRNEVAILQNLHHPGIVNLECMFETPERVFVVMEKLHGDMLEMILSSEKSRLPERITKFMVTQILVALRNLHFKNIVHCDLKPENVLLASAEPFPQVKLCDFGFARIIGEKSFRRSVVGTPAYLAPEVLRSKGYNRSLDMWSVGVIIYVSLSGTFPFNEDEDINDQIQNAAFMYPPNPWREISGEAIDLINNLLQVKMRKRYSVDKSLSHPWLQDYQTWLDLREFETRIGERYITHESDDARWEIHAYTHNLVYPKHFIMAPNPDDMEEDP

## Cc1nn(CC(C)C(=O)O)c(C)c1C (centres undefined)
[1]
  EC50: 63.6 µM (active)
[2]
  EC50: > 100 µM (inactive)

## O=C(c1coc(C2CC2)n1)N(C1CCCCC1)C1CCCCC1
[3]
  EC50: > 50 µM (inactive)
[4]
  EC50: > 50 µM (inactive)

## C(=Cc1cncc(OCCc2c[nH]c3ccccc23)c1)c1ccncc1
[5]
  Ki: 1 µM (active)
[6]
  Ki: 6.31 µM (active)
[7]
  Ki: > 10 µM (inactive)
[8]
  Ki: 3.16 µM (active)
[9]
  Ki: 5.01 µM (active)

## CCc1cccc2c1n(CC)c(=N)n2CC(=O)c1ccc(Cl)cc1
[5]
  Ki: 2.51 µM (active)
[10]
  Ki: 2.51 µM (active)
[11]
  Ki: 1.58 µM (active)

## Nc1ncnc2c1ncn2C1OC(C(=O)NC2CC2)C(O)C1O (centres undefined)
[12]
  IC50: 0.00447 µM (active)
[13]
  IC50: 0.0241 nM (inconclusive)

## CCNC(=O)c1[nH]nc(-c2cc(Cl)c(O)cc2O)c1-c1ccc(OC)cc1
[14]
  Ki: 1.26 µM (active)
[15]
  Ki: 1.58 µM (active)
[16]
  Ki: 3.16 µM (active)
[17]
  Ki: 3.98 µM (active)
[18]
  Ki: 1.58 µM (active)
